Measured values published in ChEMBL document CHEMBL4118096, “Branched Peptides: Acridine and Boronic Acid Derivatives as Antimicrobial Agents” (ACS Med Chem Lett, 2017).
In brackets after ≈: the same amount, converted by molar mass. Where a SMILES comes first, the peptide text is derived from it. The star is where a group is joined. Benzoyl(4-B(OH)2) = O=C(c1ccc(B(O)O)cc1)*; Acridin9yl = c1ccc2c(*)c3ccccc3nc2c1; Bz = O=C(c1ccccc1)*

Key:
Candida albicans [1] = assay: Antifungal activity against Candida albicans measured on day 4 by broth microdilution method; assay type: functional; details: 96 h
Aspergillus niger = assay: Antifungal activity against Aspergillus niger measured on day 4 by broth microdilution method; assay type: functional; details: 96 h
Escherichia coli = assay: Antimicrobial activity against Escherichia coli C ATCC 13706 measured on day 4 by broth microdilution method; assay type: functional; details: C ATCC 13706, 96 h
Staphylococcus aureus = assay: Antimicrobial activity against Staphylococcus aureus ATCC 6538 measured on day 4 by broth microdilution method; assay type: functional; details: ATCC 6538, 96 h
[2] = tested on: Mycolicibacterium smegmatis; assay: Antimicrobial activity against Mycobacterium smegmatis ATCC 607 measured on day 4 by broth microdilution method; assay type: functional; details: ATCC 607, 96 h
Candida albicans [3] = assay: Induction of membrane lysis in Candida albicans assessed as maltase release at MIC after 60 mins relative to control; assay type: functional
Candida albicans [4] = assay: Antibiofilm activity against Candida albicans VT1406 after 24 hrs by XXT/PMS dye based assay; assay type: functional; details: VT1406, 24 h
[5] = Safety index, ratio of EC10 for hemolytic activity in sheep RBC to MIC for Candida albicans; assay type: toxicity; details: sheep red blood cells
Erythrocyte = assay: Hemolytic activity in sheep RBC measured after 15 mins; assay type: ADME, cell-based, Ovis aries; details: 0.25 h
Saccharomyces cerevisiae = assay: Induction of membrane lysis activity in Saccharomyces cerevisiae assessed as maltase release at MIC after 60 mins relative to control; assay type: functional
Candida albicans [6] = assay: Antifungal activity against Candida albicans VT1406 in cell suspension after 24 hrs by XXT/PMS dye based assay; assay type: functional; details: VT1406, 24 h
U-87 MG = assay: Cytotoxicity against human U87 cells assessed as decrease in cell viability at 10 uM after 24 hrs by MTT assay; assay type: cell-based; details: u-87mg atcc

SMILES | MIC (Candida albicans [1]) [µg/mL] | MIC (Aspergillus niger) [µg/mL] | MIC (Escherichia coli) [µg/mL] | MIC (Staphylococcus aureus) [µg/mL] | MIC [2] [µg/mL] | Activity (Candida albicans [3]) [%] | MIC (Candida albicans [4]) [µg/mL] | selectivity ratio [5] | EC10 (Erythrocyte) [µg/mL] | Activity (Saccharomyces cerevisiae) [%] | MIC (Candida albicans [6]) [µg/mL] | Activity (U-87 MG)
CC(C)C[C@H](NC(=O)[C@H](CCCCN)NC(=O)[C@H](CCCCN)NC(=O)[C@H](CCCCN)NC(=O)[C@H](CCCCNC(=O)c1ccccc1)NC(=O)[C@H](CCCCN)NC(=O)[C@H](CCCCN)NC(=O)[C@@H](N)CCCCNC(=O)c1ccccc1)C(=O)N[C@@H](CCCCNC(=O)c1ccc(B(O)O)cc1)C(=O)N[C@@H](Cc1ccc(O)cc1)C(=O)O (H-K(Bz)KKK(Bz)KKKLK(Benzoyl(4-B(OH)2))Y-OH) | 8 (≈ 4.77 µM) | 125 (≈ 74.6 µM) | 8 (≈ 4.77 µM) | 62.5 (≈ 37.3 µM) | 62.5 (≈ 37.3 µM) | – | – | – | – | – | – | –
CC(C)C[C@H](NC(=O)[C@H](CCCCN)NC(=O)[C@H](CCCCN)NC(=O)[C@H](CCCCNc1c2ccccc2nc2ccccc12)NC(=O)[C@H](CCCCN)NC(=O)[C@H](CCCCN)NC(=O)[C@H](CCCCNc1c2ccccc2nc2ccccc12)NC(=O)[C@@H](N)CCCCN)C(=O)N[C@@H](CCCCNC(=O)c1ccc(B(O)O)cc1)C(=O)N[C@@H](Cc1ccc(O)cc1)C(=O)O (H-KK(Acridin9yl)KKK(Acridin9yl)KKLK(Benzoyl(4-B(OH)2))Y-OH) | 2 (≈ 1.1 µM) | 32 (≈ 17.6 µM) | 2 (≈ 1.1 µM) | 8 (≈ 4.39 µM) | 32 (≈ 17.6 µM) | 1 | 1 (≈ 0.549 µM) | > 100 | > 250 | 1.4 | 2 (≈ 1.1 µM) | Non-Toxic
CC(C)C[C@H](NC(=O)[C@H](CC(C)C)NC(=O)[C@H](CCCCN)NC(=O)[C@H](CCCCNC(=O)c1ccc(B(O)O)cc1)NC(=O)[C@H](CCCCN)NC(=O)[C@H](CCCCN)NC(=O)[C@H](CCCCNC(=O)c1ccc(B(O)O)cc1)NC(=O)[C@@H](N)CCCCN)C(=O)N[C@@H](CCCCN)C(=O)N[C@@H](Cc1ccc(O)cc1)C(=O)O (H-KK(Benzoyl(4-B(OH)2))KKK(Benzoyl(4-B(OH)2))KLLKY-OH) | 16 (≈ 10 µM) | 125 (≈ 78.1 µM) | 16 (≈ 10 µM) | 62.5 (≈ 39 µM) | 62.5 (≈ 39 µM) | – | – | – | – | – | – | –
CC(C)C[C@H](NC(=O)[C@H](CCCCN)NC(=O)[C@H](CCCCN)NC(=O)[C@H](CCCCNC(=O)c1ccccc1)NC(=O)[C@H](CCCCN)NC(=O)[C@H](CCCCN)NC(=O)[C@H](CCCCNC(=O)c1ccccc1)NC(=O)[C@@H](N)CCCCN)C(=O)N[C@@H](CCCCNC(=O)c1ccc(B(O)O)cc1)C(=O)N[C@@H](Cc1ccc(O)cc1)C(=O)O (H-KK(Bz)KKK(Bz)KKLK(Benzoyl(4-B(OH)2))Y-OH) | 4 (≈ 2.39 µM) | 125 (≈ 74.6 µM) | 32 (≈ 19.1 µM) | 32 (≈ 19.1 µM) | 62.5 (≈ 37.3 µM) | 18 | – | – | – | 0.4 | – | –
CC(C)C[C@H](NC(=O)[C@H](CCCCN)NC(=O)[C@H](CCCCNC(=O)c1ccc(B(O)O)cc1)NC(=O)[C@H](CCCCN)NC(=O)[C@H](CCCCN)NC(=O)[C@H](CCCCNC(=O)c1ccc(B(O)O)cc1)NC(=O)[C@H](CCCCN)NC(=O)[C@@H](N)CCCCN)C(=O)N[C@@H](CCCCNC(=O)c1ccc(B(O)O)cc1)C(=O)N[C@@H](Cc1ccc(O)cc1)C(=O)O (H-KKK(Benzoyl(4-B(OH)2))KKK(Benzoyl(4-B(OH)2))KLK(Benzoyl(4-B(OH)2))Y-OH) | 8 (≈ 4.54 µM) | 125 (≈ 70.9 µM) | 16 (≈ 9.07 µM) | 62.5 (≈ 35.4 µM) | 62.5 (≈ 35.4 µM) | – | – | – | – | – | – | –
CC(C)C[C@H](NC(=O)[C@H](CCCCNc1c2ccccc2nc2ccccc12)NC(=O)[C@H](CCCCN)NC(=O)[C@H](CCCCN)NC(=O)[C@H](CCCCN)NC(=O)[C@H](CCCCN)NC(=O)[C@H](CCCCN)NC(=O)[C@@H](N)CCCCN)C(=O)N[C@@H](CCCCN)C(=O)N[C@@H](Cc1ccc(O)cc1)C(=O)O (H-KKKKKKK(Acridin9yl)LKY-OH) | 1 (≈ 0.668 µM) | 62.5 (≈ 41.8 µM) | 16 (≈ 10.7 µM) | 16 (≈ 10.7 µM) | 16 (≈ 10.7 µM) | 1 | 62.5 (≈ 41.8 µM) | > 100 | 175 (≈ 117 µM) | 0.95 | 1 (≈ 0.668 µM) | Non-Toxic
NCCCC[C@H](NC(=O)[C@H](CCCCNC(=O)c1ccccc1)NC(=O)[C@H](CCCCNC(=O)c1ccccc1)NC(=O)[C@H](CCCCN)NC(=O)[C@H](CCCCN)NC(=O)[C@H](CCCCN)NC(=O)[C@H](CCCCN)NC(=O)[C@H](CCCCN)NC(=O)[C@@H](N)CCCCN)C(=O)N[C@@H](Cc1ccc(O)cc1)C(=O)O (H-KKKKKKK(Bz)K(Bz)KY-OH) | 1 (≈ 0.648 µM) | 250 (≈ 162 µM) | 16 (≈ 10.4 µM) | 62.5 (≈ 40.5 µM) | 32 (≈ 20.7 µM) | – | – | – | – | – | – | –
CC(C)C[C@H](NC(=O)[C@H](CCCCNC(=O)c1ccccc1)NC(=O)[C@H](CCCCN)NC(=O)[C@H](CCCCN)NC(=O)[C@H](CCCCN)NC(=O)[C@H](CCCCN)NC(=O)[C@H](CCCCN)NC(=O)[C@@H](N)CCCCN)C(=O)N[C@@H](CCCCN)C(=O)N[C@@H](Cc1ccc(O)cc1)C(=O)O (H-KKKKKKK(Bz)LKY-OH) | 2 (≈ 1.4 µM) | 125 (≈ 87.8 µM) | 32 (≈ 22.5 µM) | 62.5 (≈ 43.9 µM) | 32 (≈ 22.5 µM) | <1 | – | – | – | 1 | – | –
CC(C)C[C@H](NC(=O)[C@H](CCCCN)NC(=O)[C@H](CCCCN)NC(=O)[C@H](CCCCN)NC(=O)[C@H](CCCCN)NC(=O)[C@H](CCCCN)NC(=O)[C@H](CCCCN)NC(=O)[C@@H](N)CCCCN)C(=O)N[C@@H](CCCCNC(=O)c1ccccc1)C(=O)N[C@@H](Cc1ccc(O)cc1)C(=O)O (H-KKKKKKKLK(Bz)Y-OH) | 1 (≈ 0.702 µM) | 125 (≈ 87.8 µM) | 8 (≈ 5.62 µM) | 62.5 (≈ 43.9 µM) | 32 (≈ 22.5 µM) | 4 | – | – | – | 1.8 | – | –
